Reference: patent US20230286958A1, “PLASMA KALLIKREIN INHIBITORS” (Merck Sharp & Dohme LLC, priority 2020, published 2023)

Key:
[1] = biological target: human Factor XIa (Homo sapiens (Human), UniProt P03951); assay: Factor XIa Assay (fluorogenic substrate GPR-AFC); format: biochemical; conditions: Factor XIa (FXIa)
[2] = biological target: Human plasma kallikrein (Homo sapiens (Human), UniProt P03952); assay: Kallikrein Assay (fluorogenic substrate Acetyl-K-P-R-AFC); format: biochemical; conditions: Plasma Kallikrein (PKal)
Method in brief: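 Ki is derived from IC50 with the Cheng-Prusoff equation, and IC50 from the inflection point of a four-parameter logistic curve. The rate of AFC release is read with 0.5 nM purified enzyme and […] substrate at room temperature or 37 °C.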

human Factor XIa, sequence (P03951 388-625 limits assumed): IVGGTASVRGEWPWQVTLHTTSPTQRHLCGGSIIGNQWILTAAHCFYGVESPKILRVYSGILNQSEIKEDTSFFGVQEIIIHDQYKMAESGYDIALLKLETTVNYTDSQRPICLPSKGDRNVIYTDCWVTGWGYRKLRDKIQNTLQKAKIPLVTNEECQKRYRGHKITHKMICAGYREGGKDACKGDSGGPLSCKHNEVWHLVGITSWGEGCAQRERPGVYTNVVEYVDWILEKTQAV
human Factor XIa, sequence (P03951 19-387 partner limits assumed): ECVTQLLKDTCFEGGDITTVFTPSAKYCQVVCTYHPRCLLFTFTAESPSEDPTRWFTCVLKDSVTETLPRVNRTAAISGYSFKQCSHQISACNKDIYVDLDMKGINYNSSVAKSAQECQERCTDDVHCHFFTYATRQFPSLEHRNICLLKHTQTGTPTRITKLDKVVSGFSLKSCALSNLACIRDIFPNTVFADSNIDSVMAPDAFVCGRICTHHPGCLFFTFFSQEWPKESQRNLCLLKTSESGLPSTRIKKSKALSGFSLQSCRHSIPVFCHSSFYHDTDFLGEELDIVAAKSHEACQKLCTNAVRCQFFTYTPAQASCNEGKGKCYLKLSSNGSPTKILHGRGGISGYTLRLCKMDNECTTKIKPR
Human plasma kallikrein, sequence (P03952 391-638): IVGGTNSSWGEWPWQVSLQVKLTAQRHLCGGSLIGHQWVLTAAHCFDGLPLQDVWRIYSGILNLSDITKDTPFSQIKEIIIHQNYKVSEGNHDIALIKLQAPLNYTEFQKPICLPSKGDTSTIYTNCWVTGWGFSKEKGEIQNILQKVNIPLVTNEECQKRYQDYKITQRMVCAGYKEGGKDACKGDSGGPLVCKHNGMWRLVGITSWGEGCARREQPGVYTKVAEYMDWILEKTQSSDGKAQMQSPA
Human plasma kallikrein, sequence (P03952 20-390 partner): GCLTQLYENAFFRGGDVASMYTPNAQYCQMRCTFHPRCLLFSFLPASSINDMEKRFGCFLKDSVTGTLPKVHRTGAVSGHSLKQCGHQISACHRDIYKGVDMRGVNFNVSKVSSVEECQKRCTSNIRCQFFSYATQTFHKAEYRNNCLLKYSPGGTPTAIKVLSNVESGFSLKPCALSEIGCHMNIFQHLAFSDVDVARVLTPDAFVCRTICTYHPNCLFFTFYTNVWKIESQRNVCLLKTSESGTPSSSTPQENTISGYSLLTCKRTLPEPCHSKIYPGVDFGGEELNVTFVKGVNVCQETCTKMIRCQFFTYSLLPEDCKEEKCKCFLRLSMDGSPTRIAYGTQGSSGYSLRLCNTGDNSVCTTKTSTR

SMILES	IC50 [1] [nM]	IC50 [2] [nM]
Cc1ncc(-c2c(C(F)F)ccc(Cl)c2F)nc1C(=O)Nc1cnn(C(C)c2cnc(N3C[C@H]4C[C@H]4C3=O)c(F)c2C)c1 (single isomer, unassigned) [Example 128, 6-(3-Chloro-6-(difluoromethyl)-2-fluorophenyl)-N-(1-((R or S)-1-(5-fluoro-4-methyl-6-((1R,5S)-2-oxo-3-azabicyclo[3.1.0]hexan-3-yl)pyridin-3-yl)ethyl)-1H-pyrazol-4-yl)-3-methylpyrazine-2-carboxamide]	5270	7.1
Cc1nc(N2C[C@H]3C[C@H]3C2=O)ncc1C1(n2cc(NC(=O)c3nc(-c4c(C(F)F)ccc(Cl)c4F)cnc3C)cn2)CCC1 [Example 188, 6-(3-Chloro-6-(difluoromethyl)-2-fluorophenyl)-3-methyl-N-(1-(1-(4-methyl-2-((1R,5S)-2-oxo-3-azabicyclo[3.1.0]hexan-3-yl)pyrimidin-5-yl)cyclobutyl)-1H-pyrazol-4-yl)pyrazine-2-carboxamide]	3110	6.5
Cc1ncc(-c2c(C(F)F)ccc(Cl)c2F)nc1C(=O)Nc1cnn(C(C)c2cnc(N3C[C@H]4C[C@H]4C3=O)c3c2OCO3)c1 (single isomer, unassigned) [Example 253, 6-(3-Chloro-6-(difluoromethyl)-2-fluorophenyl)-3-methyl-N-(1-((S or R)-1-(4-((1R,5S)-2-oxo-3-azabicyclo[3.1.0]hexan-3-yl)-[1,3]dioxolo[4,5-c]pyridin-7-yl)ethyl)-IH-pyrazol-4-yl)pyrazine-2-carboxamide]	733	2.2
Cc1ncc(-c2c(C(F)F)ccc(Cl)c2F)nc1C(=O)Nc1cnn(Cc2nnc(N3C[C@H]4C[C@H]4C3=O)c(C)c2C)c1 [Example 88, 6-(3-Chloro-6-(difluoromethyl)-2-fluorophenyl)-N-(1-((4,5-dimethyl-6-((1R,5S)-2-oxo-3-azabicyclo[3.1.0]hexan-3-yl)pyridazin-3-yl)methyl)-1H-pyrazol-4-yl)-3-methylpyrazine-2-carboxamide]	127	0.7
Cc1nc(C(C)n2cc(NC(=O)c3nc(-c4c(C(F)F)ccc(Cl)c4F)cnc3C(F)F)cn2)cnc1N1C[C@H]2C[C@H]2C1=O (single isomer, unassigned) [Example 101, 6-(3-Chloro-6-(difluoromethyl)-2-fluorophenyl)-3-(difluoromethyl)-N-(1-((R or S)-1-(6-methyl-5-((1R,5S)-2-oxo-3-azabicyclo[3.1.0]hexan-3-yl)pyrazin-2-yl)ethyl)-1H-pyrazol-4-yl)pyrazine-2-carboxamide]	3950	0.6
Cc1ncc(-c2c(OC(F)F)ccc(Cl)c2F)nc1C(=O)Nc1cnn(C(C)c2cnc(N3C[C@H]4C[C@H]4C3=O)c(C)n2)c1 (single isomer, unassigned) [Example 124, 6-(3-Chloro-6-(difluoromethoxy)-2-fluorophenyl)-3-methyl-N-(1-((R or S)-1-(6-methyl-5-((1R,5S)-2-oxo-3-azabicyclo[3.1.0]hexan-3-yl)pyrazin-2-yl)ethyl)-1H-pyrazol-4-yl)pyrazine-2-carboxamide]	963	0.6
Cc1ncc(-c2c(C(F)F)ccc(Cl)c2F)nc1C(=O)Nc1cnn(C(CO)c2ccc(N3CC4CC4C3=O)nc2)c1 (single isomer, unassigned) [Example 163, 6-(3-Chloro-6-(difluoromethyl)-2-fluorophenyl)-N-(1-((S or R)-2-hydroxy-1-(6-((1S,5R or 1R,5S)-2-oxo-3-azabicyclo[3.1.0]hexan-3-yl)pyridin-3-yl)ethyl)-1H-pyrazol-4-yl)-3-methylpyrazine-2-carboxamide]	> 10000	9.2
Cc1nc(N2C[C@H]3C[C@H]3C2=O)ncc1[C@H](C)n1cc(NC(=O)c2cncc(-c3c(C(F)F)ccc(Cl)c3F)n2)cn1 [Example 22, 6-(3-Chloro-6-(difluoromethyl)-2-fluorophenyl)-N-(1-((S)-1-(4-methyl-2-((1R,5S)-2-oxo-3-azabicyclo[3.1.0]hexan-3-yl)pyrimidin-5-yl)ethyl)-1H-pyrazol-4-yl)pyrazine-2-carboxamide]	2730	1.8
Cc1ncc(-c2c(C(F)F)ccc(Cl)c2F)nc1C(=O)Nc1cnn(C(C)c2ncc(N3C[C@H]4C[C@H]4C3=O)c(C)c2C)c1 (single isomer, unassigned) [Example 242, 6-(3-Chloro-6-(difluoromethyl)-2-fluorophenyl)-N-(1-((R or S)-1-(3,4-dimethyl-5-((1R,5S)-2-oxo-3-azabicyclo[3.1.0]hexan-3-yl)pyridin-2-yl)ethyl)-1H-pyrazol-4-yl)-3-methylpyrazine-2-carboxamide]	> 10000	0.8
Cc1nc(C(C)n2cc(NC(=O)c3cncc(-c4c(C(F)F)ccc(Cl)c4F)n3)cn2)ncc1N1C[C@H]2C[C@H]2C1=O (single isomer, unassigned) [Example 4, 6-(3-Chloro-6-(difluoromethyl)-2-fluorophenyl)-N-(1-((R or S)-1-(4-methyl-5-((1R,5S)-2-oxo-3-azabicyclo[3.1.0]hexan-3-yl)pyrimidin-2-yl)ethyl)-1H-pyrazol-4-yl)pyrazine-2-carboxamide]	> 10000	16.8
Cc1nc(N2C[C@H]3C[C@H]3C2=O)cnc1C(C)n1cc(NC(=O)c2cncc(-c3c(C(F)F)ccc(Cl)c3F)n2)cn1 (single isomer, unassigned) [Example 53, 6-(3-Chloro-6-(difluoromethyl)-2-fluorophenyl)-N-(1-((S or R)-1-(3-methyl-5-((1R,5S)-2-oxo-3-azabicyclo[3.1.0]hexan-3-yl)pyrazin-2-yl)ethyl)-1H-pyrazol-4-yl)pyrazine-2-carboxamide]	6630	38.3
Cc1cc(C(C)n2cc(NC(=O)c3nc(-c4c(C#N)ccc(Cl)c4F)cnc3C)cn2)nnc1N1C[C@H]2C[C@H]2C1=O (single isomer, unassigned) [Example 236, 6-(3-Chloro-6-cyano-2-fluorophenyl)-3-methyl-N-(1-((R or S)-1-(5-methyl-6-((1R,5S)-2-oxo-3-azabicyclo[3.1.0]hexan-3-yl)pyridazin-3-yl)ethyl)-1H-pyrazol-4-yl)pyrazine-2-carboxamide]	750	0.7
CC(c1cnc(N2C[C@H]3C[C@H]3C2=S)nc1)n1cc(NC(=O)c2cncc(-c3c(C(F)F)ccc(Cl)c3F)n2)cn1 (single isomer, unassigned) [Example 32, 6-(3-Chloro-6-(difluoromethyl)-2-fluorophenyl)-N-(1-((R or S)-1-(2-((1R,5S)-2-thioxo-3-azabicyclo[3.1.0]hexan-3-yl)pyrimidin-5-yl)ethyl)-1H-pyrazol-4-yl)pyrazine-2-carboxamide]	> 10000	16.4
Cc1c(C(C)n2cc(NC(=O)c3cncc(-c4c(OC(F)F)ccc(Cl)c4F)n3)cn2)cnc(N2C[C@H]3C[C@H]3C2=O)c1C (single isomer, unassigned) [Example 105, 6-(3-Chloro-6-(difluoromethoxy)-2-fluorophenyl)-N-(1-((R or S)-1-(4,5-dimethyl-6-((1R,5S)-2-oxo-3-azabicyclo[3.1.0]hexan-3-yl)pyridin-3-yl)ethyl)-1H-pyrazol-4-yl)pyrazine-2-carboxamide]	101	0.6
C[C@@H](c1cnc(N2C[C@H]3C[C@H]3C2=O)nc1N)n1cc(NC(=O)c2cncc(-c3c(C(F)F)ccc(Cl)c3F)n2)cn1 [Example 171, N-(1-((S)-1-(4-Amino-2-((1R,5S)-2-oxo-3-azabicyclo[3.1.0]hexan-3-yl)pyrimidin-5-yl)ethyl)-1H-pyrazol-4-yl)-6-(3-chloro-6-(difluoromethyl)-2-fluorophenyl)pyrazine-2-carboxamide]	> 10000	713
Cc1c(Cn2cc(NC(=O)c3cncc(-c4c(C(F)F)ccc(Cl)c4F)n3)cn2)ccc(N2C[C@H]3C[C@H]3C2=O)c1C [Example 48]	> 10000	0.6
Cc1cc(C(C)n2cc(NC(=O)c3nc(-c4c(C(F)F)ccc(Cl)c4F)cnc3C(C)O)cn2)nnc1N1C[C@H]2C[C@H]2C1=O (single isomer, unassigned) [Example 232, 6-(3-Chloro-6-(difluoromethyl)-2-fluorophenyl)-3-((S or R)-1-hydroxyethyl)-N-(1-((R or S)-1-(5-methyl-6-((1R,5S)-2-oxo-3-azabicyclo[3.1.0]hexan-3-yl)pyridazin-3-yl)ethyl)-1H-pyrazol-4-yl)pyrazine-2-carboxamide]	194	1.8
Cc1ncc(-c2c(C(F)F)ccc(Cl)c2F)nc1C(=O)Nc1cnn(Cc2cnc(N3C[C@H]4C[C@H]4C3=O)c(Cl)c2)c1 [Example 7, N-(1-((5-Chloro-6-((1R,5S)-2-oxo-3-azabicyclo[3.1.0]hexan-3-yl)pyridin-3-yl)methyl)-1H-pyrazol-4-yl)-6-(3-chloro-6-(difluoromethyl)-2-fluorophenyl)-3-methylpyrazine-2-carboxamide]	527	1.9
Cc1ncc(-c2c(C(F)F)ccc(Cl)c2F)nc1C(=O)Nc1cnn(C(C)c2cnc(N3C[C@H]4C[C@H]4C3=O)c(Cl)c2)c1 (stereo partly drawn) [Example 92, N-(1-((S)-1-(5-chloro-6-((1R,5S)-2-oxo-3-azabicyclo[3.1.0]hexan-3-yl)pyridin-3-yl)ethyl)-1H-pyrazol-4-yl)-6-(3-chloro-6-(difluoromethyl)-2-fluorophenyl)-3-methylpyrazine-2-carboxamide]	577	1.3
Cc1ccc(Cl)c(F)c1-c1cncc(C(=O)Nc2cnn(C(C)c3cnc(N4C[C@H]5C[C@H]5C4=O)nc3C)c2)n1 (single isomer, unassigned) [Example 108, 6-(3 -Chloro-2-fluoro-6-methylphenyl)-N-(1-((S or R)-1-(4-methyl-2-((1R,5S)-2-oxo-3-azabicyclo[3.1.0]hexan-3-yl)pyrimidin-5-yl)ethyl)-1H-pyrazol-4-yl)pyrazine-2-carboxamide]	> 10000	16.6
